In brackets after ≈: the same amount, converted by molar mass.
Columns and labels:
[1] = Solubility in 0.01 M sodium phosphate buffer at pH = 7.4; format: physicochemical
Neutrophil elastase = biological target: T1, Neutrophil elastase (Homo sapiens, UniProt P08246); experiment: Inhibition of Human Neutrophil Elastase-catalyzed hydrolysis of the synthetic substrate MeO-Suc-Ala-Ala-Pro-Val-p- nitroanilide.
T1 sequence (P08246 whole entry): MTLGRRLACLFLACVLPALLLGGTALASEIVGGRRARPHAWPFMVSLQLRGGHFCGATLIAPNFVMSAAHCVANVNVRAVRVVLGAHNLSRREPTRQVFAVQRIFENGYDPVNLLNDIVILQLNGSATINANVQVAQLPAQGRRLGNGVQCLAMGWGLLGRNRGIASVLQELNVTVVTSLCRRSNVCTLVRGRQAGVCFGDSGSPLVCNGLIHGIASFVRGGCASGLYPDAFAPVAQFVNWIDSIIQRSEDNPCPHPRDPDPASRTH

Structure (SMILES) | solubility [1] | Ki (Neutrophil elastase)
CC(C)C(NC(=O)Cn1cccc(NC(=O)OCc2ccccc2)c1=O)C(=O)C(F)(F)F (centres undefined) | 110 µg/mL (≈ 243 µM) | 
CC(=O)Cn1c(=O)[nH]c2c(=O)n(CC(=O)NC(C(=O)C(F)(F)F)C(C)C)ccc2c1=O (centres undefined) |  | 310 nM
CC(C)C(NC(=O)Cn1ccc2c(=O)n(Cc3ccccc3)c(=O)[nH]c2c1=O)C(=O)C(F)(F)F (centres undefined) | 730 µg/mL (≈ 1530 µM) | 160 nM
CC(C)C(NC(=O)Cn1ccc2c(=O)n(CCc3ccccc3)c(=O)[nH]c2c1=O)C(=O)C(F)(F)F (centres undefined) |  | 42 nM
COC(=O)Cn1c(=O)[nH]c2c(=O)n(CC(=O)N[C@@H](C(=O)C(F)(F)F)C(C)C)ccc2c1=O |  | 490 nM
CC(C)[C@@H](NC(=O)Cn1ccc2c(=O)n(CC(=O)OC(C)(C)C)c(=O)[nH]c2c1=O)C(=O)C(F)(F)F |  | 290 nM
CC(C)C(NC(=O)Cn1ccc2c(=O)n(CC(=O)c3ccccc3)c(=O)[nH]c2c1=O)C(=O)C(F)(F)F (centres undefined) |  | 74 nM
CC(C)C(NC(=O)Cn1ccc2c(=O)n(C)c(=O)[nH]c2c1=O)C(=O)C(F)(F)F (centres undefined) |  | 620 nM
CC(C)C(NC(=O)Cn1ccc2c(=O)n(CCN3CCOCC3)c(=O)[nH]c2c1=O)C(=O)C(F)(F)F (centres undefined) |  | 330 nM
CC(C)[C@@H](NC(=O)Cn1ccc2c(=O)n(CC(=O)O)c(=O)[nH]c2c1=O)C(=O)C(F)(F)F |  | 690 nM
CC(C)C(NC(=O)Cn1ccc2c(=O)[nH]c(=O)[nH]c2c1=O)C(=O)C(F)(F)F (centres undefined) | > 5000 µg/mL | 910 nM
CC(C)C(NC(=O)Cn1ccc2c(=O)n([C@H]3C[C@@H]3c3ccccc3)c(=O)[nH]c2c1=O)C(=O)C(F)(F)F (some centres undefined) |  | 230 nM
CC(C)C(NC(=O)Cn1ccc2c(=O)n(-c3ccccc3)c(=O)[nH]c2c1=O)C(=O)C(F)(F)F (centres undefined) |  | 830 nM
COc1ccc(Cn2c(=O)[nH]c3c(=O)n(CC(=O)NC(C(=O)C(F)(F)F)C(C)C)ccc3c2=O)cc1 (centres undefined) |  | 100 nM

Continued by falling Ki (Neutrophil elastase), values first:

solubility [1] | Ki (Neutrophil elastase) | Structure (SMILES)
 | 26 nM | CC(C)C(NC(=O)Cn1ccc2c(=O)n(Cc3cccc4ccccc34)c(=O)[nH]c2c1=O)C(=O)C(F)(F)F (centres undefined)
100 µg/mL (≈ 187 µM) | 22 nM | CNC(=O)Cn1c(=O)[nH]c2c(=O)n(CC(=O)NC(C(=O)C(F)(F)F)C(C)C)c(-c3ccccc3)cc2c1=O (centres undefined)
 | 21 nM | CC(C)C(NC(=O)Cn1ccc2c(=O)n(CCc3cccc4ccccc34)c(=O)[nH]c2c1=O)C(=O)C(F)(F)F (centres undefined)
320 µg/mL (≈ 631 µM) | 19 nM | CC(C)C(NC(=O)Cn1c(-c2ccccc2)cc2c(=O)n(N(C)C)c(=O)[nH]c2c1=O)C(=O)C(F)(F)F (centres undefined)
 | 16 nM | CC(C)C(NC(=O)Cn1ccc2c(=O)n(C(C)(C)Cc3ccccc3)c(=O)[nH]c2c1=O)C(=O)C(F)(F)F (centres undefined)
220 µg/mL (≈ 474 µM) | 15 nM | CC(C)C(NC(=O)Cn1c(-c2ccccc2)cc2c(O)nc(O)nc2c1=O)C(=O)C(F)(F)F (centres undefined)
130 µg/mL (≈ 249 µM) | 15 nM | CC(C)[C@@H](NC(=O)Cn1c(-c2ccccc2)cc2c(=O)n(CC(N)=O)c(=O)[nH]c2c1=O)C(=O)C(F)(F)F
420 µg/mL (≈ 760 µM) | 12 nM | COC(Cn1c(=O)[nH]c2c(=O)n(CC(=O)NC(C(=O)C(F)(F)F)C(C)C)c(-c3ccccc3)cc2c1=O)OC (centres undefined)
44 µg/mL (≈ 92 µM) | 10 nM | CC(C)C(NC(=O)Cn1c(-c2ccccc2)cc2c(=O)n(C)c(=O)[nH]c2c1=O)C(=O)C(F)(F)F (centres undefined)
 | 9.9 nM | CC(C)C(NC(=O)Cn1c(-c2ccccc2)cc2c(=O)n(CC(=O)NCc3ccccc3)c(=O)[nH]c2c1=O)C(=O)C(F)(F)F (centres undefined)
300 µg/mL (≈ 519 µM) | 8.4 nM | CC(C)C(NC(=O)Cn1c(-c2ccccc2)cc2c(=O)n(CCN3CCOCC3)c(=O)[nH]c2c1=O)C(=O)C(F)(F)F (centres undefined)
8 µg/mL (≈ 14.9 µM) | 7.5 nM | CCOCCn1c(=O)[nH]c2c(=O)n(CC(=O)NC(C(=O)C(F)(F)F)C(C)C)c(-c3ccccc3)cc2c1=O (centres undefined)
230 µg/mL (≈ 393 µM) | 5.7 nM | COc1ccc(Cn2c(=O)[nH]c3c(=O)n(CC(=O)NC(C(=O)C(F)(F)F)C(C)C)c(-c4ccccc4)cc3c2=O)cc1 (centres undefined)
 | 2.8 nM | CC(C)[C@@H](NC(=O)Cn1c(-c2ccccc2)cc2c(=O)n(CC(=O)OCc3ccccc3)c(=O)[nH]c2c1=O)C(=O)C(F)(F)F
